Results published in ChEMBL document CHEMBL5316268 (J Med Chem, 2023).
≈ marks a conversion by molar mass, not a printed value. Calls of active or inactive are those of the source. The rule behind the calls is not given here.

How the values were obtained:
A-375 = test: Antiproliferative activity against human A-375 cells at 100 uM incubated for 3 days by Cell Titer-Glo assay; format: functional, cell-based; conditions: time 3.0 day
[1] = In vivo inhibition of plasma CD73 in mouse xenografted with mouse EG7 cells at 50 mg/kg, po bid administered for 20 days and measured after 2 hrs post last dose in presence of 15N5-AMP and TNAP inhibitor by LC/MS analysis relative to control; format: functional; conditions: EG7, 480 h, time 20 day
EG7 [2] = test: Antiproliferative activity against mouse EG7 cells at 100 uM incubated for 3 days by Cell Titer-Glo assay; format: functional, cell-based; conditions: time 3.0 day
Cytochrome P450 2B6 = molecular target: T1, Cytochrome P450 2B6 (Homo sapiens, UniProt P20813); test: Inhibition of human CYP2B6 at 10 uM; format: ADME
T1 sequence (P20813 whole entry): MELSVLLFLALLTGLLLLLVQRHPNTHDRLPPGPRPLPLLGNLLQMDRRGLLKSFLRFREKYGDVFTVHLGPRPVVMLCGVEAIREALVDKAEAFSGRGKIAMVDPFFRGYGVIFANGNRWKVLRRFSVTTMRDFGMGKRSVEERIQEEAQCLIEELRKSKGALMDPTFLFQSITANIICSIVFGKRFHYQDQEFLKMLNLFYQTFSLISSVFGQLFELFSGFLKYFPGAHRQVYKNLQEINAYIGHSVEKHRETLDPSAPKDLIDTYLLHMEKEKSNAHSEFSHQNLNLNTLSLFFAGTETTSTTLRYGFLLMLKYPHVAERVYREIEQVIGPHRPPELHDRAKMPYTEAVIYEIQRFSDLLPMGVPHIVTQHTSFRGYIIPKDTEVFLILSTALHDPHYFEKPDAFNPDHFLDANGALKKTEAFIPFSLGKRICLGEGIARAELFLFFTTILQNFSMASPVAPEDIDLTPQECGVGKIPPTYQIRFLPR

EG7 [3] = test: Antitumor activity against mouse EG7 cells implanted in C57BL/6 mouse assessed as reduction in tumor volume at 100 mg/kg, po bid administered for 21 days in presence of anti-PD-L1 antibody; format: functional, organism-based; conditions: time 21.0 day
CD8-positive T cell [4] = test: Reversal of AMP-mediated suppression of human CD8-positive T cells function assessed as increase in CD25 expression at 0.01 to 1000 nM measured after 4 days by flow cytometry; format: functional, cell-based; conditions: dose 0.01-1000 nM, time 4.0 day
CD8-positive T cell [5] = test: Reversal of AMP-mediated suppression of human CD8-positive T cell proliferation at 0.01 to 1000 nM measured after 4 days by flow cytometry; format: functional, cell-based; conditions: dose 0.01-1000 nM, time 4.0 day
[6] = Cytotoxicity against human CD8-positive T cells at 100 uM incubated for 4 days by Cell Titer-Glo assay; format: toxicity, cell-based; conditions: 96 h, time 4 day
[7] = Plasma protein binding in monkey at 10 uM assessed as bound fraction; format: ADME, cell-free, Macaca mulatta; conditions: rhesus monkey, read-out: PPB (converted)
[8] = Drug concentration in CD rat plasma at 50 to 500 mg/kg, po measured for 24 hrs by LC-MS/MS analysis; format: ADME, organism-based; conditions: dose 50-500 mg/kg
[9] = AUC (0 to 24 hrs) in CD rat at 200 mg/kg, po measured for 24 hrs by LC-MS/MS analysis; format: ADME, organism-based; set-up: dose 200 mg/kg, time 24 hrs, route po; conditions: in vivo
[10] = Plasma protein binding in mouse at 10 uM assessed as bound fraction; format: ADME, cell-free; conditions: read-out: PPB (converted)
[11] = AUC (0 to 24 hrs) in CD rat at 500 mg/kg, po measured for 24 hrs by LC-MS/MS analysis; format: ADME, organism-based; set-up: time 24 hrs, dose 500 mg/kg, route po; conditions: in vivo
[12] = Plasma protein binding in rat at 10 uM assessed as bound fraction; format: ADME, cell-free; conditions: read-out: PPB (converted)
[13] = Tmax in CD rat at 500 mg/kg, po measured for 24 hrs by LC-MS/MS analysis; format: ADME, organism-based; conditions: in vivo
[14] = Tmax in CD rat at 50 mg/kg, po measured for 24 hrs by LC-MS/MS analysis; format: ADME, organism-based; conditions: in vivo
Cytochrome P450 1A2 = molecular target: T2, Cytochrome P450 1A2 (Homo sapiens, UniProt P05177); test: Inhibition of human CYP1A2 at 10 uM; format: ADME
T2 sequence (P05177 whole entry): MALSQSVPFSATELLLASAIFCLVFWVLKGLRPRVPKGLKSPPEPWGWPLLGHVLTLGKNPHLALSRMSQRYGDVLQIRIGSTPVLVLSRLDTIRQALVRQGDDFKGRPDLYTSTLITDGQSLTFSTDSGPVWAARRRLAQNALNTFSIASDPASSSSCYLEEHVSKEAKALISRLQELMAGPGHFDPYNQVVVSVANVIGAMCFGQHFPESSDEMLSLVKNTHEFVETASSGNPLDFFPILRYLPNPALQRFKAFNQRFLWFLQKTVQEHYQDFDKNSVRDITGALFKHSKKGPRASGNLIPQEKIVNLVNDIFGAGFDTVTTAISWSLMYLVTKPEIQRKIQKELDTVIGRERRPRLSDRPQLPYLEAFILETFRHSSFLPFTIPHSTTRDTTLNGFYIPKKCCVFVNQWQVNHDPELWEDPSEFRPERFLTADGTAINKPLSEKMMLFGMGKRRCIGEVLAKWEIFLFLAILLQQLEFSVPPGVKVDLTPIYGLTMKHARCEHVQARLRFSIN

[15] = AUC (0 to 24 hrs) in CD rat at 50 mg/kg, po measured for 24 hrs by LC-MS/MS analysis; format: ADME, organism-based; set-up: time 24 hrs, dose 50 mg/kg, route po; conditions: in vivo
Cytochrome P450 2C9 = Cytochrome P450 2C9 (Homo sapiens, UniProt P11712); test: Inhibition of human CYP2C9 at 10 uM; format: ADME
Cytochrome P450 2C9, sequence (P11712 whole entry): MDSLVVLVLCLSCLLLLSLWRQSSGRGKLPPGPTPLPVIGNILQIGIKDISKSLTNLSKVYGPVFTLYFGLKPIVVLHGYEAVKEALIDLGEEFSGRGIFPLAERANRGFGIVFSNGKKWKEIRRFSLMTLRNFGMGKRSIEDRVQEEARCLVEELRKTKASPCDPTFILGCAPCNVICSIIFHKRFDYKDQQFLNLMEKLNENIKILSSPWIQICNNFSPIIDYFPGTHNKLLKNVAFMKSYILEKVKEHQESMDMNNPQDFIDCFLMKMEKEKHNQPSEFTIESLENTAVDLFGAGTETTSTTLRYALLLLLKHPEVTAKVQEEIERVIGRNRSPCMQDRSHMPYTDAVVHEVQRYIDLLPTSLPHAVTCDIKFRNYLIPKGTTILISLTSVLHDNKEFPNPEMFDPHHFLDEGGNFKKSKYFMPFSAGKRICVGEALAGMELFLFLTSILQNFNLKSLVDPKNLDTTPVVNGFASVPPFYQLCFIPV

CD8-positive T cell [16] = test: Reversal of AMP-mediated suppression of human CD8-positive T cells function assessed as increase in IFN-gamma level at 0.01 to 1000 nM measured after 4 days by ELISA; format: functional, cell-based; conditions: dose 0.01-1000 nM, time 4.0 day
[17] = Aqueous solubility of compound at pH 1 to 7; format: physicochemical; conditions: aqueous solution
CD8-positive T cell [18] = test: Reversal of AMP-mediated suppression of human CD8-positive T cells function assessed as increase in granzyme B level at 0.01 to 1000 nM measured after 4 days by ELISA; format: functional, cell-based; conditions: dose 0.01-1000 nM, time 4.0 day
EG7 [19] = test: Antitumor activity against mouse EG7 cells implanted in C57BL/6 mouse assessed as reduction in tumor volume at 10 to 50 mg/kg, po bid administered for 20 days; format: functional, organism-based; conditions: dose 10-50 mg/kg, time 20.0 day
[20] = Plasma protein binding in dog at 10 uM assessed as bound fraction; format: ADME, cell-free, Canis lupus familiaris; conditions: read-out: PPB (converted)

inhibition (INH) (Cytochrome P450 2B6): Not Active
fraction unbound at 10 µM [7]: 0.4
concentration at 24 h [8]: > 3 nM
AUC(0-t) at 24 h [9]: 6.09 µg·h/mL
fraction unbound at 10 µM [10]: 0.37
AUC(0-t) at 24 h [11]: 18.5 µg·h/mL
fraction unbound at 10 µM [12]: 0.29
Tmax [13]: 18 min
Tmax [14]: 48 min
inhibition (INH) (Cytochrome P450 1A2): Not Active
AUC [15]: 0.58 µg·h/mL
inhibition (INH) (Cytochrome P450 2C9): Not Active
solubility [17]: 3.88 mg/mL (≈ 6.3 mM)
fraction unbound at 10 µM [20]: 0.58
Compound: C#C[C@@]1(O)[C@@H](COC(Cc2ccc(N3CCCNC3=O)cc2)(C(=O)O)C(=O)O)O[C@@H](n2cnc3c(N)nc(Cl)nc32)[C@@H]1O
Activity (A-375): inactive
inhibition in vivo at 50 mg/kg [1]: 92%
Activity (EG7 [2]): inactive
Activity (EG7 [3]): Active
Activity (CD8-positive T cell [4]): Active
Activity (CD8-positive T cell [5]): Active
Activity [6]: Non-Toxic
Activity (CD8-positive T cell [16]): Active
Activity (CD8-positive T cell [18]): Active
Activity (EG7 [19]): Active
